In patent publication US6436874B1, “Synergistic herbicidal agents based on leaf herbicides containing phosphorus, imidazolinones and hormone weed killers” (priority 1998, dated 2002):
Counter-ions that a name gives are not always drawn. Like-named read-outs stand apart in the source and are kept apart here.

Key:
Format in all cases: in vivo
Hedyotis verticillata = assay: Field trial, herbicidal activity against Hedyotis verticillata in oil palm plantation; conditions: Scleromitrion verticillatum; for inhibition at 25 g/ha: read-out: Herbicidal activity (%), w. after appl., No. 11, dose 25 g of AS/ha; for inhibition at 50 g/ha: read-out: Herbicidal activity (%), w. after appl., No. 12, dose 50 g of AS/ha; for inhibition at 80 g/ha: read-out: Herbicidal activity (%), w. after appl., No. 13, dose 80 g of AS/ha
Experimental: (§1) In an oil palm plantation, the economically important tropical weed Hedyotis verticillata was grown on plots of the dimensions 2×5 m under natural outdoor conditions and treated with the herbicides A1.2, B1 and C1 or their mixtures in a tank mix under standard conditions using a plot sprayer, at a water application rate of 450 liters of water per hectare (over-the-top application to the weeds; plant density initially more than 95% ground coverage). At intervals of 1, 2, 3, 4, 5, 6, 7 and 8 weeks after the application, the herbicidal efficacy of the active compounds or active compound mixtures was evaluated visually on the basis of the treated plots, in comparison with untreated control plots. The damage to and development of all above-ground parts of the plants were recorded. Evaluation was carried out using a percentage scale (100% effect=all plants killed; 50% effect=50% of the plants and the green parts of the plants killed; 0% effect=no noticeable effect=like control plot). The evaluation values of in each case 4 plots were averaged.

Axonopus compressus = assay: Field trial, herbicidal activity against Axonopus compressus in rubber tree plantation; conditions: Axonopus compressus, read-out: Activity (%), w. after appl., No. 2, dose 60 g of AS/ha
Experimental: as §1
In a rubber tree plantation, plots with the tropical weed Axonopus compressus were grown under natural outdoor conditions (plot dimensions 2×5 m). The herbicides or their mixtures in a tank mix were applied under standard conditions using a plot spayer at a water application rate of 450 liters of water per hectare (over-the-top application). At intervals of 4, 7, 13, 17 and 21 weeks after the application, the herbicidal efficacy of the active compounds or active compound mixtures was evaluated visually on the basis of the treated plots, in comparison with untreated control plots. The damage to and development of all above-ground parts of the plants were recorded. Evaluation was carried out as described in Example 1.

[1] = test system: Brachiaria mutica, Digitaria horizontalis, Panicum maximum, Echinochloa colona and Ageratum conyzoides; assay: Field trial, herbicidal activity against weeds in sugar cane plantation
Experimental: as §1, with “Evaluation was carried out using a percentage scale (100% effect=all plants killed; 50% effect=50% of the plants and the green parts of the plants killed; 0% effect=no noticeable effect=like control plot). The evaluation values of in each case 4 plots were averaged.” left out
In a sugar cane plantation, plots with the weeds Brachiaria mutica, Digitaria horizontalis, Panicum maximum, Echinochloa colona and Ageratum conyzoides were grown under natural outdoor conditions (dimensions of the plots 2×5 m). […] Four weeks after the application, the herbicidal efficacy of the active compounds or their mixtures was evaluated visually on the basis of the treated plots, in comparison with untreated control plots. The damage to and development of all above-ground parts of the plants were recorded. […]

Asystasia intrusa = assay: Field trial, herbicidal activity against Asystasia intrusa in rubber tree plantation; conditions: Asystasia intrusa, read-out: Activity (%), w. after appl., No. 2, dose 60 g of AS/ha
Experimental: as §1
In a rubber tree plantation, plots with the tropical weed Asystasia intrusa were grown under natural outdoor conditions (dimensions of the plots 2 x 5 m). The herbicides or their mixtures in a tank mix were applied under standard conditions (over-the-top application using a plot sprayer, water application rate 450 l/ha). In intervals of 4, 7, 13, 17 and 21 weeks after the application, the herbicidal efficacy of the active compounds or their mixtures was evaluated visually on the basis of the treated plots, in comparison with untreated control plots. The damage to and the development of all above-ground parts of the plants were recorded. Evaluation was carried out as described in Example 1.

## CP(=O)(O)CCC(N)C(=O)O (stereo not drawn) [A1.2, Glufosinate-monoammonium salt]
Hedyotis verticillata; 1 w. after appl.
  inhibition at 25 g/ha: 35%
  inhibition at 50 g/ha: 35%
  inhibition at 80 g/ha: 58%
Hedyotis verticillata; 2 w. after appl.
  inhibition at 25 g/ha: 28%
  inhibition at 50 g/ha: 25%
  inhibition at 80 g/ha: 45%
Hedyotis verticillata; 3 w. after appl.
  inhibition at 25 g/ha: 23%
  inhibition at 50 g/ha: 20%
  inhibition at 80 g/ha: 40%
Hedyotis verticillata; 4 w. after appl.
  inhibition at 25 g/ha: 20%
  inhibition at 50 g/ha: 20%
  inhibition at 80 g/ha: 40%
Hedyotis verticillata; 5 w. after appl.
  inhibition at 25 g/ha: 10%
  inhibition at 50 g/ha: 10%
  inhibition at 80 g/ha: 40%
Hedyotis verticillata; 6 w. after appl.
  inhibition at 25 g/ha: 10%
  inhibition at 50 g/ha: 10%
  inhibition at 80 g/ha: 30%
Hedyotis verticillata; 7 w. after appl.
  inhibition at 25 g/ha: 10%
  inhibition at 50 g/ha: 10%
  inhibition at 80 g/ha: 28%
Hedyotis verticillata; 8 w. after appl.
  inhibition at 25 g/ha: 0%
  inhibition at 50 g/ha: 0%
  inhibition at 80 g/ha: 8%
Axonopus compressus; 4 w. after appl.
  inhibition at 60 g/ha: 17%
Axonopus compressus; 7 w. after appl.
  inhibition at 60 g/ha: 10%
Axonopus compressus; 13 w. after appl.
  inhibition at 60 g/ha: 0%
Axonopus compressus; 17 w. after appl.
  inhibition at 60 g/ha: 0%
Axonopus compressus; 21 w. after appl.
  inhibition at 60 g/ha: 0%
[1]; 672 h, read-out: Herbicidal activity (%)
  inhibition at 300 g/ha: 72%
[1]; No. 2, dose 300 g of AS/ha, percent ground coverage, control plot has more than 95% weed coverage
  Weed coverage (%): 27%
Asystasia intrusa; 4 w. after appl.
  inhibition at 60 g/ha: 23%
Asystasia intrusa; 7 w. after appl.
  inhibition at 60 g/ha: 5%
Asystasia intrusa; 13 w. after appl.
  inhibition at 60 g/ha: 0%
Asystasia intrusa; 17 w. after appl.
  inhibition at 60 g/ha: 0%
Asystasia intrusa; 21 w. after appl.
  inhibition at 60 g/ha: 0%
